Assay: xn = mol fraction of the nth substance listed

CCC1(C)OC1C#N (configuration not stated) + ClC(Cl)(Cl)Cl
viscosity [mPa·s], 101 kPa
Conditions	293.15 K	298.15 K	303.15 K	313.15 K	323.15 K
x1 = 0.0076	0.977	0.906	0.875	0.75	0.646
x1 = 0.008	0.983	0.938	0.873	0.776	0.698

ClC1CCCCC1 + CC1CCCO1
viscosity [mPa·s], 101.3 kPa
Conditions	x2 = 0.0984	x2 = 0.1994	x2 = 0.2986	x2 = 0.4009	x2 = 0.4991	x2 = 0.5995	x2 = 0.701	x2 = 0.802	x2 = 0.8995
298.15 K	1.367	1.195	1.055	0.9325	0.8311	0.742	0.6638	0.5963	0.5378
313.15 K	1.075	0.9535	0.8519	0.7611	0.6848	0.6167	0.5561	0.5018	0.4546

CCCCCCCCCCCCN + c1ccccc1
303.15 K, 101 kPa
Conditions	viscosity [mPa·s]
x2 = 0.2072	2.122
x2 = 0.4348	1.563
x2 = 0.5228	1.375
x2 = 0.6046	1.189
x2 = 0.7998	0.8357

Cc1cccc(O)c1 + c1ccncc1
viscosity [mPa·s], 101 kPa
Conditions	x1 = 0.1071	x1 = 0.2168	x1 = 0.3407	x1 = 0.3927	x1 = 0.4754	x1 = 0.542	x1 = 0.6374	x1 = 0.6973	x1 = 0.8077	x1 = 0.8862
293.15 K	1.228	1.77	2.54	3.085	4.25	5.585	8.16	9.98	13.08	14.81
303.15 K	1.098	1.461	2.125	2.51	3.35	4.175	5.57	6.52	7.885	8.64
313.15 K	0.931	1.24	1.732	2.022	2.605	3.15	3.995	4.565	5.255	5.59

Cc1cccc(O)c1 + CC(=O)O
viscosity [mPa·s], 101 kPa
Conditions	x2 = 0.1684	x2 = 0.313	x2 = 0.4385	x2 = 0.5485	x2 = 0.6457	x2 = 0.7321	x2 = 0.8096	x2 = 0.8794	x2 = 0.9425
298.15 K	8.835	6.522	5.086	4.131	3.438	2.895	2.425	1.996	1.602
308.15 K	5.453	4.462	3.486	3.298	2.87	2.483	2.143	1.811	1.437
318.15 K	4.444	3.818	3.302	2.942	2.618	2.31	1.945	1.625	1.22

CC(=O)c1ccc(C)cc1 + C=CC#N
308.15 K, 101 kPa
Conditions	viscosity [mPa·s]
x1 = 0.053	0.365
x1 = 0.1107	0.4026
x1 = 0.1749	0.4516
x1 = 0.2487	0.511
x1 = 0.3327	0.5909
x1 = 0.4237	0.684
x1 = 0.536	0.8136
x1 = 0.6679	0.9939
x1 = 0.8181	1.23

CCCCCCn1cc[n+](C)c1.F[P-](F)(F)(F)(F)F + CCCCCCn1cc[n+](C)c1.[Cl-]
viscosity [mPa·s], 101 kPa
Conditions	303.15 K	308.15 K	313.15 K	318.15 K	323.15 K
x2 = 0.2	962.7	679	486.2	357.7	–
x2 = 0.4	–	–	854.7	598.9	433.5
x2 = 0.6	–	–	–	–	705.5
